Source: ChEMBL document CHEMBL1821669, “Cyclic depsipeptides, grassypeptolides D and E and Ibu-epidemethoxylyngbyastatin 3, from a Red Sea Leptolyngbya cyanobacterium” (J Nat Prod, 2011)
Numbered stars: 1 amine (or outer) side, 2 acyl side, 3 side chain; on linkers, the order of the positions; unused ones are H or OH. Square brackets hold non-standard residues; d marks the D form. Peptide text beside a SMILES is read from it. X2 = CCC[C@@H](N[*:1])[C@H](C)C(=O)O[C@H](C(=O)[*:2])[C@@H](C)CC; X3 = CC[C@H](C)[C@H](OC(=O)[C@@H](C)[C@@H](CC)N[*:1])C(=O)[*:2]; dAbuψ(thiazoline)Cys = CC[C@@H](N[*:1])C1=N[C@H](C(=O)[*:2])CS1; X4 = CN([C@@H](Cc1ccccc1)C1=N[C@H](C(=O)[*:2])CS1)[*:1]; dβ3hAla(2R-Me) = C[C@@H](N[*:1])[C@@H](C)C(=O)[*:2]; X1 = C[C@H](N[*:1])C(=O)C(C)(C)C(=O)[*:2]; d(aThr) = C[C@@H](O)[C@@H](N)C(=O)O; NMeF = CN[C@@H](Cc1ccccc1)C(=O)O; PhLac = O=C(O)[C@@H](O)Cc1ccccc1; NMeL = CN[C@@H](CC(C)C)C(=O)O; dNMeL = CN[C@H](CC(C)C)C(=O)O; NMeV = CN[C@H](C(=O)O)C(C)C; NMeA = CN[C@@H](C)C(=O)O

What was measured:
[1] = Cytotoxicity against mouse Neuro2a cells after 48 hrs by MTT assay; assay type: functional, cell-based; settings: N2a
[2] = tested on: HeLa; experiment: Cytotoxicity against human HeLa cells after 48 hrs by MTT assay; assay type: functional, cell-based

Row | Structure (SMILES) | IC50 [1] [nM] | IC50 [2] [nM]
1 | CCC[C@H]1NC(=O)[C@H](C)N(C)C(=O)C(C)(C)C(=O)[C@H](C)NC(=O)[C@H](Cc2ccccc2)N(C)C(=O)[C@H](C(C)C)N(C)C(=O)CNC(=O)[C@H](CC(C)C)N(C)C(=O)CNC(=O)[C@H]([C@@H](C)CC)OC(=O)[C@H]1C (cyclo(G[NMeL]G[NMeV][NMeF][X1][NMeA][X2])) | > 10000 | 
2 | CC[C@H](C)[C@@H]1OC(=O)[C@@H](C)[C@@H](CC)NC(=O)[C@H](C)N(C)C(=O)C(C)(C)C(=O)[C@H](C)NC(=O)[C@H](Cc2ccccc2)N(C)C(=O)[C@H](C(C)C)N(C)C(=O)CNC(=O)[C@H](CC(C)C)N(C)C(=O)CNC1=O [DOLASTATIN 12] (cyclo(G[NMeL]G[NMeV][NMeF][X1][NMeA][X3])) | > 1000 | 
3 | CC[C@H]1NC(=O)[C@@H]2CSC(=N2)[C@H](Cc2ccccc2)N(C)C(=O)[C@@H]2CCCN2C(=O)[C@H](C(C)C)N(C)C(=O)[C@H](Cc2ccccc2)OC(=O)[C@H](C)[C@@H](C)NC(=O)[C@@H]([C@@H](C)O)NC(=O)[C@@H](CC(C)C)N(C)C(=O)[C@@H]2CSC1=N2 [GRASSYPEPTOLIDE C] (cyclo([NMeV]P[X4][dAbuψ(thiazoline)Cys][dNMeL][d(aThr)][dβ3hAla(2R-Me)][PhLac])) |  | 45
4 | CC[C@H]1NC(=O)[C@@]2(C)CSC(=N2)[C@H](Cc2ccccc2)N(C)C(=O)[C@@H]2CCCN2C(=O)[C@H](C(C)C)N(C)C(=O)[C@H](Cc2ccccc2)OC(=O)[C@H](C)[C@@H](C)NC(=O)[C@@H]([C@@H](C)O)NC(=O)[C@@H](CC(C)C)N(C)C(=O)[C@@H]2CSC1=N2 [GRASSYPEPTOLIDE D] | 599 | 335
5 | CC[C@H]1NC(=O)[C@@]2(C)CSC(=N2)[C@H](Cc2ccccc2)N(C)C(=O)[C@@H]2CCCN2C(=O)[C@H](C(C)C)N(C)C(=O)[C@H](Cc2ccccc2)OC(=O)[C@H](C)[C@@H](C)NC(=O)[C@H]([C@@H](C)O)NC(=O)[C@H](CC(C)C)N(C)C(=O)[C@@H]2CSC1=N2 [GRASSYPEPTOLIDE E] | 407 | 192
